# Earlier results, collected in US20150110862A1, “Sweet Gum Fruit Extract as a Therapeutic Agent” (Board of Supervisors of Louisiana State University and …, priority 2007, published 2015).
# Tests used:
# [1] = system: 39 human cancer cell lines; conditions: literature
# [2] = system: UVB-radiation-induced photocarcinogenesis; conditions: oral administration, literature
# two-stage carcinogenesis = conditions: literature
# [3] = system: human prostate cancer PC3 cells; conditions: published articles
Compound,cytotoxicity against 39 human cancer cell lines [1],tumor incidence and tumor multiplicity vs control group [2],"anti-tumor activity, two-stage carcinogenesis assay (two-stage carcinogenesis)",IC50 against human prostate cancer PC3 cells (reported) [3] [µg/mL]
"CC1(C)CCC2(C(=O)O)CCC3(C)C(=CC(=O)C4C5(C)CCC(=O)C(C)(C)C5CCC43C)C2C1 (centres unmarked) [3,11-dioxoolean-12-en-28-oic acid]",weaker activity,–,–,–
"CC1(C)CCC2(C(=O)O)CCC3(C)C(=CCC4C5(CO)CCC(O)C(C)(C)C5CCC43C)C2C1 (stereo not drawn) [3α,25-dihydroxyolean-12-en-28-oic acid]",weaker activity,–,–,–
"C=C(C)C1CCC2(C(=O)O)CCC3(C)C(CCC4C56CCC(O)(OC5)C(C)(C)C6CCC43C)C12 (stereo not drawn) [3β,25-epoxy-3α-hydroxylup-20(29)-en-28-oic acid]",–,approximate halving of the tumor incidence and tumor multiplicity,moderate inhibitory activities,–
C=C(C)[C@@H]1CC[C@]2(C(=O)O)CC[C@]3(C)[C@@H](CC[C@@H]4[C@@]5(C)CCC(=O)C(C)(C)[C@@H]5[C@H](O)C[C@]43C)[C@@H]12 [6β-hydroxy-3-oxolup-20 (29)-en-28-oic acid],weaker activity,–,–,–
"CC(=O)OC[C@]12CC[C@@H](O)C(C)(C)[C@@H]1CC[C@]1(C)[C@@H]2CC=C2[C@@H]3CC(C)(C)CC[C@]3(C(=O)O)CC[C@]21C [Terpenoid 1, 25-acetoxy-3α-hydroxyolean-12-en-28-oic acid]",strong cytotoxicity,–,moderate inhibitory activities,5.9
